According to patent US4906661A, “Esters of aryloxypropanolamine derivatives” (E. I. Du Pont de Nemours and Company, priority 1989, dated 1990):

What was measured:
[1] = Half-life in dog whole blood (procedure D); assay type: in vitro ADME; conditions: 37° C., read-out: T1/2 dog blood
Experimental: (§1) In each experiment, 1 ml of a solution containing 50 μg of the test compound was added to 1 ml of whole blood or 1 ml of a 33% (w/v) liver homogenate. The samples were incubated in a Dubnoff shaking metabolic incubator for 2.5, 5.0, 10.0, 20.0, 30.0 and 60.0 minutes at 37° C. At the designated time periods, the test mixtures were removed from the incubator and transferred to a 0° C. ice bath. Acetonitrile (2 ml) was immediately added and the mixtures were mixed to stop enzymatic hydrolysis. Zero time samples were prepared by adding 2 ml of acetonitrile to denature the proteins prior to addition of the test compounds. After centrifugation to sediment denatured proteins, 2 ml of the supernatant was removed and analyzed by high pressure liquid chromatography, using a mobile phase of 60% acetonitrile/40% 0.05 M sodium phosphate buffer (pH 6.6), a U.V. detector and Waters μ Bondapak Phenyl column.
(§2) The half life of each test compound was determined graphically by plotting the decrease in concentrations as a function of time.

[2] = test system: β-adrenergic receptors, guinea pig trachea vs right atria; assay: Cardioselectivity, KB trachea/KB atria; assay type: cell-based; conditions: 10^(pA2 atria-pA2 trachea); ratio greater than one indicates cardioselectivity
Experimental: Each tissue was suspended between a fixed glass rod and a Statham Universal Transducer connected to a Beckman recorder. Atria were allowed to beat spontaneously under a loading tension of approximately 0.5 gm. Intrinsic depressant or stimulant activity was determined for each compound by progressively increasing concentrations in the tissue baths at 60-minute intervals. Tissues were not washed between increments. The maximum concentration showing little or no cardiodepressant activity was chosen for blockade experiments. Changes in rate in response to isoproterenol, a standard β-receptor agonist, were measured in the absence and presence of test compounds. Spiral strips of guinea pig trachea were suspended under 5 gm resting tension and incubated with phentolamine, tropolone and cocaine. Active tension was generated by addition of carbachol (3.0×10^-7 M) and decreases in tension in response to isoproterenol were quantitated. Cumulative concentration-response curves were produced with isoproterenol both before and after 60-minute incubation of test compounds with atria and trachea. […] The degree of cardioselectivity was estimated from the ratio, KB trachea/KB atria (10^(pA2 atria-pA2 trachea)). A ratio greater than one indicates cardioselectivity. Test drugs were dissolved in distilled water and added to the bath (30 ml) in a volume of 10 or 100 μl.

[3] = target: β2 receptors, guinea pig trachea (Cavia porcellus, UniProt Q8K4Z4); assay: cell-based; conditions: Table I; guinea pig trachea, vs isoproterenol; -log KB; read-out: PA2 Trachea (converted)
Chain of β2 receptors, guinea pig trachea (Q8K4Z4 whole entry): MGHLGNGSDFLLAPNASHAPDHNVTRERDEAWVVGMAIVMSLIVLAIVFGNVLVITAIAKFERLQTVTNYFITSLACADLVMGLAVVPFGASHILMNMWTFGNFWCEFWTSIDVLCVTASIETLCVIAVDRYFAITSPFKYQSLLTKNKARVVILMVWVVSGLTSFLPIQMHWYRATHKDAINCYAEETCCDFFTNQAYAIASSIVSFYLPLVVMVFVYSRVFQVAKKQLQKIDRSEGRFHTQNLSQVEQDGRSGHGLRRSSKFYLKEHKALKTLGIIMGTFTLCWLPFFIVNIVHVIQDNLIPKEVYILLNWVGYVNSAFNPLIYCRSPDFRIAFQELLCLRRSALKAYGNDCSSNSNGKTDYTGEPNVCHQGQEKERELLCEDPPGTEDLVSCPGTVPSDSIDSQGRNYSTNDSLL
Experimental: Each tissue was suspended between a fixed glass rod and a Statham Universal Transducer connected to a Beckman recorder. Atria were allowed to beat spontaneously under a loading tension of approximately 0.5 gm. Intrinsic depressant or stimulant activity was determined for each compound by progressively increasing concentrations in the tissue baths at 60-minute intervals. Tissues were not washed between increments. […] Changes in rate in response to isoproterenol, a standard β-receptor agonist, were measured in the absence and presence of test compounds. Spiral strips of guinea pig trachea were suspended under 5 gm resting tension and incubated with phentolamine, tropolone and cocaine. Active tension was generated by addition of carbachol (3.0×10^-7 M) and decreases in tension in response to isoproterenol were quantitated. Cumulative concentration-response curves were produced with isoproterenol both before and after 60-minute incubation of test compounds with atria and trachea. […] The blocking potency of test compounds was estimated by computing pA2 values (-log KB) by the method of Furchgott, the Pharmacological Differentiation of Adrenergic Receptors, Ann. […] A ratio greater than one indicates cardioselectivity. Test drugs were dissolved in distilled water and added to the bath (30 ml) in a volume of 10 or 100 μl.

[4] = Half-life in dog liver homogenate (procedure D); assay type: in vitro ADME; conditions: 37° C., read-out: T1/2 dog liver homogenate
Experimental: as §1, §2

[5] = Enzymatic hydrolysis by dog blood (procedure C); assay type: in vitro ADME; conditions: 37° C.; for remaining at 1 h: read-out: % Drug remaining, 1 HR, dog blood; for remaining at 2 h: read-out: % Drug remaining, 2 HR, dog blood
Experimental: Chemicals--Acetonitrile was "HPLC" grade. Distilled water was used to dissolve the compounds and 0.01 N HCl was used to dissolve compounds requiring an acidic pH for dissolution.
Enzyme Source--Fresh aqueous humor was collected from eyes of dogs using a 23-gauge needle while fresh dog blood was collected into heparinized Vacutainer tubes. Fresh liver was homogenized in 0.9% NaCl using a Potter-Elvehjem Teflon pestle and glass homogenizer to make a 25% (W/V) homogenate.
Incubation Condition--A 0.5 ml aliquot of dog aqueous humor, blood, or liver homogenate was incubated with 12.5 μg (0.5 ml) of β-blocker in a Dubnoff shaking metabolic incubator at 37° C. for 60 and 120 min. Denatured tissue controls were prepared by adding 2.0 ml of acetonitrile into 0.5 ml of aqueous humor, blood, or liver homogenate to destroy esterase activities prior to addition of the β-blockers. These controls were then incubated at 37° C. for 120 min. After 60 and 120 min, the incubations were terminated by addition of 2 ml of acetonitrile and immediately mixed by a Vortex.cndot. to stop esterase activities.
Sample Processing and Data Analyses--All samples were centrifuged at 4000 RPM for 10 min to sediment denatured proteins. The resultant supernatants were transferred to WISP.cndot. vials and analyzed using an HPLC assay developed for beta blockers. The hydrolysis of β-blockers by aqueous humor, blood, and liver homogenate was determined by disappearance of the compounds. The extent of enzymatic hydrolysis by each tissue was determined by comparing the amount of each compound (absolute peak area) recovered at each time point to the amount of each compound (absolute peak area) in denatured tissue control and aqueous control samples.

[6] = Enzymatic hydrolysis by dog liver homogenate (procedure C); assay type: in vitro ADME; conditions: for remaining at 1 h / remaining at 2 h / half-life: dog, liver homogenate; for remaining at 1 h / remaining at 2 h: 37° C., procedure C; for remaining at 1 h: read-out: % Drug remaining, 1 HR, dog liver homogenate; for remaining at 2 h: read-out: % Drug remaining, 2 HR, dog liver homogenate; for half-life: approximate value, determined by procedure C, read-out: T1/2 dog liver homogenate
Text: (§3) Chemicals--Acetonitrile was "HPLC" grade. Distilled water was used to dissolve the compounds and 0.01 N HCl was used to dissolve compounds requiring an acidic pH for dissolution. Enzyme Source--Fresh aqueous humor was collected from eyes of dogs using a 23-gauge needle while fresh dog blood was collected into heparinized Vacutainer tubes. Fresh liver was homogenized in 0.9% NaCl using a Potter-Elvehjem Teflon pestle and glass homogenizer to make a 25% (W/V) homogenate. […] Denatured tissue controls were prepared by adding 2.0 ml of acetonitrile into 0.5 ml of aqueous humor, blood, or liver homogenate to destroy esterase activities prior to addition of the β-blockers. These controls were then incubated at 37° C. for 120 min. […] Sample Processing and Data Analyses--All samples were centrifuged at 4000 RPM for 10 min to sediment denatured proteins. The resultant supernatants were transferred to WISP.cndot. vials and analyzed using an HPLC assay developed for beta blockers. The hydrolysis of β-blockers by aqueous humor, blood, and liver homogenate was determined by disappearance of the compounds. The extent of enzymatic hydrolysis by each tissue was determined by comparing the amount of each compound (absolute peak area) recovered at each time point to the amount of each compound (absolute peak area) in denatured tissue control and aqueous control samples.

[7] = Enzymatic hydrolysis by dog aqueous humor (procedure C); assay type: in vitro ADME; conditions: for remaining at 1 h / remaining at 2 h: 37° C., procedure C; for remaining at 1 h: read-out: % Drug remaining, 1 HR, dog aqueous humor; for remaining at 2 h: read-out: % Drug remaining, 2 HR, dog aqueous humor; for half-life: approximate value, determined by procedure C, read-out: T1/2 dog aqueous humor; for metabolised at 2 h: two hours, read-out: hydrolyzed in aqueous humor after two hours
Text: as §3

half-life [1] [h]	Kb [3] [nM]	half-life [4] [h]	remaining at 1 h [5] [%]	remaining at 2 h [5] [%]	remaining at 1 h [6] [%]	remaining at 2 h [6] [%]	half-life [6] [h]	remaining at 1 h [7] [%]	remaining at 2 h [7] [%]	half-life [7] [h]	metabolised at 1 h ([7]; one hour, read-out: hydrolyzed in aqueous humor after one hour) [%]	metabolised at 2 h [7] [%]	hydrolysis in liver homogenate ([6]; within 60 minutes)	SMILES	Cardioselectivity KB (Trachea)/KB (Atria) [2]
1.03 ± 0.05	31.6	> 3	41	16	0	0	< 1	94	91	> 2				COC(=O)c1ccccc1OCC(O)CNCCNC(=O)C(C)C (stereo not shown) [II, Methyl 2-[2-Hydroxy-3-[N-[2-(2-methylpropionamido)ethyl]amino]propoxy]benzoate]	4
1.22 ± 0.267	20	2.15	53	23	0	0	< 1	100	98	> 2	0	2		COC(=O)c1ccccc1OCC(O)CNCCNC(=O)Cc1ccccc1 (stereo not shown) [III, Methyl 2-[2-Hydroxy-3-[N-[2-(phenylacetamido)ethyl]amino]propoxy]benzoate]	4
1.03 ± 0.133	100	2.78	54	47	0	0	< 1	93	93	> 2		7	completely hydrolyzed	COC(=O)c1ccccc1OCC(O)CNCCNC(C)=O (stereo not shown) [Example I, Methyl 2-[2-Hydroxy-3-[N-2(-acetamidoethyl)amino]propoxy]benzoate]	2
